According to ChEMBL document CHEMBL1914353, “Utilization of halogen bond in lead optimization: a case study of rational design of potent phosphodiesterase type 5 (PDE5) inhibitors” (J Med Chem, 2011):

Assay: Inhibition of rabbit platelet PDE5 using [3H]cGMP as substrate after 30 mins by scintillation proximity assay
Parameters: species or system Oryctolagus cuniculus

Row | IC50 [nM] | SMILES
1 | 51.8 | CCCOc1ccc(S(=O)(=O)N2CCN(C)CC2)cc1-c1nc(CC)cc(=O)[nH]1
2 | 7.2 | CCCOc1ccc(S(=O)(=O)N2CCN(C)CC2)cc1-c1nc(CC)c(I)c(=O)[nH]1
3 | 3.3 | CCCc1nn(C)c2c(=O)[nH]c(-c3cc(S(=O)(=O)N4CCN(C)CC4)ccc3OCC)nc12
